Tests used:
Squalene synthase = target: T1, Squalene synthase (Rattus norvegicus, UniProt Q02769); assay: Inhibition of squalene synthase (formation of squalene from tritiated farnesyl pyrophosphate by rat liver microsomal protein); type: biochemical; settings: substrate 1-[3H]-farnesyl pyrophosphate 20µM
T1 construct: from tissue; host or cells: rat liver microsomes
T1 sequence (Q02769 1-416): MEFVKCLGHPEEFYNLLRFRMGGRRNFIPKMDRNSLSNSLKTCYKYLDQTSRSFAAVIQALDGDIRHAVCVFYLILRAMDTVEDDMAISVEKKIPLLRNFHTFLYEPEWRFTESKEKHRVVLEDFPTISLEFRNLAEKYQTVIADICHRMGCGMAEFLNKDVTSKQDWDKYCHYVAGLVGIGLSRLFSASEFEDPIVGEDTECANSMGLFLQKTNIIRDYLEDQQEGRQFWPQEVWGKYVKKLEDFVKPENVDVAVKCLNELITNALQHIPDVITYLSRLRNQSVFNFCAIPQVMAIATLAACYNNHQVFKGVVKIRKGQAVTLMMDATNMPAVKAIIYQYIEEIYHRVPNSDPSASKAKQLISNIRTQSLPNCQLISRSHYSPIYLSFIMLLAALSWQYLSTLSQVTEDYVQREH
Description: (a) Inhibition of Squalene synthase
In this test, the ability of a compound to prevent the formation of squalene from a radioactive substrate (tritiated farnesyl pyrophosphate) is assessed.
The test compound is incubated at a concentration of 25 micromolar in 200µl of a buffered solution containing potassium phosphate (50mM), MgCl2 (4.95mM), KF (9.9mM), NADPH (0.9mM) and rat liver microsomal protein (20µg). Rat liver microsomes are prepared by the method described in published European Patent Application No. 324,421 and stored in liquid nitrogen prior to assay. Assay vials are kept at 37°C throughout the incubation.
The reaction is started with the addition of the substrate (1-[^3H]-farnesyl pyrophosphate), final concentration 20µM, and stopped after 15 minutes reaction time with the addition of 50µl of 4% KOH. The reaction products are separated from unreacted substrate after application to a C-18 octadecyl lccBond column (Analytichem Int product No. 617101). An aqueous fraction is eluted with 250µl of 0.1M KOH. Squalene is then eluted with 1.0 ml 10% ethylacetate in hexane and radioactivity determined. The difference in radioactivity in the presence and absence of the test compound is used to determine the level of inhibition. […] The IC50 can then be determined from a plot of percentage inhibition against concentration of test compound.

[1] = tested on: de novo hepatic cholesterol synthesis; assay: Acute rat cholesterol synthesis assay (de novo hepatic cholesterol synthesis from 14C-acetate); type: in vivo; settings: at 50mg/kg; female rats
Description: (b) Acute rat cholesterol synthesis assay.
This is an acute in vivo test in the rat to measure de novo hepatic cholesterol synthesis from exogenously administered ^14C-acetate.
Female rats (35 - 55 g) are housed in reverse lighting conditions (red light from 0200h - 1400h) for a period of about 2 weeks prior to test. Animals are allowed free access to chow and drinking water throughout this period. At test, animals should weigh 125 - 150 g.
Test compounds may be administered by oral gavage, dissolved or suspended in 0.5% polysorbate, or by ip or iv dosing. Control animals receive vehicle alone. After 1 hour the rats are injected ip with 25µCi [2-^14C]-acetate (NEN DUPONT. specific activity, 45-60mCi/mmol NEC-085H, or AMERSHAM specific activity, 50-60mCi/mmol CFA 14) in a volume of 0.25 ml saline (100µCi/ml). After a further hour, rats are terminally anaesthetised with halothane and a blood sample obtained from the abdominal vena cava.
1ml of plasma is lyophilised and then saponified in 2ml ethanolic KOH (1 part 33% KOH, 9 parts ethanol) at 75°C for 2 hours. After addition of an equal quantity of water, non-saponifiable lipids are extracted with two 5ml volumes of hexane. The hexane extracts are evaporated to dryness and the residues dissolved in ethanol to determine cholesterol specific radioactivity. ED50 values can be determined in the standard way.

SMILES: OC1(c2ccc(/C=C/c3cccnc3)cc2)CN2CCC1CC2 (centres unmarked) [Example 2, 3-(4-[(E)-2-(3-pyridyl)vinyl]phenyl)quinuclidin-3-ol]
- inhibition at 2.5 µM (Squalene synthase): ~89%
- reduction in the rate of cholesterol biosynthesis [1]: 72%

Reference: patent EP0674636B1, “QUINUCLIDINE DERIVATIVES AS SQUALENE SYNTHASE INHIBITORS” (ZENECA LIMITED, priority 1992, dated 1994)
